Test results published in patent US10239887B2, “Positive allosteric modulators of the muscarinic acetylcholine receptor M4” (Vanderbilt University, priority 2016, dated 2019).
Structures can show the parent of a compound that is named as a salt. Where two headings read alike, the source gives them in different places.

Assays:
rat mAChR M4 = target: T1, rat mAChR M4 (Rattus norvegicus, UniProt P08485); experiment: mAChR M4 cell-based functional assay (calcium flux), rat M4; set-up: Emax: dose or concentration left out as unconfirmed; details: for EC50: read-out: Rat M4 EC50, CHO-K1 rM4-Gqi5 cells, calcium flux, increase in EC20 acetylcholine response
T1 sequence (P08485 1-478): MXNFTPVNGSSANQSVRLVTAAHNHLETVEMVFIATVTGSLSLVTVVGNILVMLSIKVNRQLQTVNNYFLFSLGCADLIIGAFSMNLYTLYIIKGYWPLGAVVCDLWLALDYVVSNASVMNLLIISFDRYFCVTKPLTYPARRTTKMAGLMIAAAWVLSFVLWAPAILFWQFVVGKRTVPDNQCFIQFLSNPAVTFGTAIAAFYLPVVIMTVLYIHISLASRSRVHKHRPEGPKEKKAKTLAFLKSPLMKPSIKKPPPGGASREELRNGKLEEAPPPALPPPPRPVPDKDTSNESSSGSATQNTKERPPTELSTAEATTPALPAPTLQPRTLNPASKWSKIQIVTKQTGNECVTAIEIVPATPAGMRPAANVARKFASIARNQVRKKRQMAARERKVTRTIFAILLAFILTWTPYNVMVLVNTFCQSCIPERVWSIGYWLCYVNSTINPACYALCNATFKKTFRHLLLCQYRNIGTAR

human mAChR M4 = target: T2, human mAChR M4 (Homo sapiens, UniProt P08173); experiment: mAChR M4 cell-based functional assay (calcium flux), human M4; details: for Emax: % ACh maximum at 30 μM
T2 sequence (P08173 1-479): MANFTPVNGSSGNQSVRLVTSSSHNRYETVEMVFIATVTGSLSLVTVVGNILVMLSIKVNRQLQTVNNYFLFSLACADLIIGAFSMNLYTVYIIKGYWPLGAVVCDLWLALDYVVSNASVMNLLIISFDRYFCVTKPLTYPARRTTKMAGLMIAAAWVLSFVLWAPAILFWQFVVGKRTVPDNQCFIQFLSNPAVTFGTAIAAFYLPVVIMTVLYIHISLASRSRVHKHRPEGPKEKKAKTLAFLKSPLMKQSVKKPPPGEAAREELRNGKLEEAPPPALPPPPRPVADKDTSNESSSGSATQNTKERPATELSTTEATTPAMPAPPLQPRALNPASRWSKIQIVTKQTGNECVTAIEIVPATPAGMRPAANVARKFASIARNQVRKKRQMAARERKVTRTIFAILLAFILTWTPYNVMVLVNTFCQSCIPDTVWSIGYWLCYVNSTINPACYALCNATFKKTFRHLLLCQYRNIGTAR

[1] = Human M4 EC50, CHO-K1 hM4-Gqi5 cells, calcium flux, increase in EC20 acetylcholine response
[2] = Human M4 EC50 (nM), Table 11, calcium flux, PAM activity with EC20 acetylcholine

| Structure (SMILES) | Emax (rat mAChR M4) [%] | EC50 (rat mAChR M4) [nM] | Emax (human mAChR M4; Human M4) [%] | EC50 (human mAChR M4; [1]) [nM] | EC50 (human mAChR M4; [2]) [nM] | Emax (human mAChR M4; Table 11) [%] | EC50 (human mAChR M4) [nM] |
| --- | --- | --- | --- | --- | --- | --- | --- |
| Cc1nnc2sc3c(N(C)C)ncnc3c2c1C [Compound 1, N,N,3,4-tetramethylpyrimido[4′,5′:4,5]thieno[2,3-c]pyridazin-8-amine] | 79 | 724 | 62 | 638 | – | – | – |
| Cc1nnc2sc3c(NC4CCCCC4)ncnc3c2c1C [Compound 2, N-cyclohexyl-3,4-dimethylpyrimido[4′,5′:4,5] thieno[2,3-c] pyridazin-8-amine] | 62 | 836 | 52 | 724 | – | – | – |
| Cc1nnc2sc3c(NC4CCOCC4)ncnc3c2c1C [Compound 3, 3,4-dimethyl-N-(tetrahydro-2H-pyran-4-yl) pyrimido[4′,5′:4,5] thieno[2,3-c]pyridazin-8-amine] | 60 | 521 | 45 | 446 | – | – | – |
| Cc1nnc2sc3c(N4CCCCC4)ncnc3c2c1C [Compound 4, 3,4-dimethyl-8-(piperidin-1-yl)pyrimido[4′,5′:4,5]thieno [2,3-c]pyridazine] | 58 | 215 | 44 | 120 | – | – | – |
| Cc1nnc2sc3c(N4CCCC4)ncnc3c2c1C [Compound 6, 3,4-dimethyl-8-(pyrrolidin-1-yl)pyrimido[4′,5′:4,5]thieno [2,3-c]pyridazine] | 82 | – | 68 | – | – | – | – |
| Cc1nnc2sc3c(NC4CN(c5ncc(C(F)(F)F)cn5)C4)ncnc3c2c1C [Compound 7, 3,4-dimethyl-N-(1-(5-(trifluoromethyl)pyrimidin-2-yl)azetidin-3-yl)pyrimido[4′,5′:4,5] thieno[2,3-c]pyridazin-8-amine] | 86 | 30 | 74 | 251 | – | – | – |
| Cc1nnc2sc3c(N4CCN(C5CC5)CC4)ncnc3c2c1C [Compound 8, 8-(4-cyclopropylpiperazin-1-yl)-3,4-dimethylpyrimido [4′,5′:4,5]thieno[2,3-c] pyridazine] | 42 | 700 | 30 | 616 | – | – | – |
| Cc1nnc2sc3c(N4CCC4)ncnc3c2c1C [Compound 9, 8-(azetidin-1-yl)-3,4-dimethylpyrimido [4′,5′:4,5]thieno[2,3-c] pyridazine] | 75 | – | 68 | 351 | – | – | – |
| Cc1nnc2sc3c(N4CC5CC5C4)ncnc3c2c1C (centres unmarked) [Compound 10, 8-(3-azabicyclo[3.1.0]hexan-3-yl)-3,4-dimethylpyrimido [4′,5′:4,5]thieno[2,3-c] pyridazine] | 86 | 36 | 81 | 21 | – | – | – |
| Cc1nnc2sc3c(N4CCC(N(C)C)C4)ncnc3c2c1C (centres unmarked) [Compound 11, 1-(3,4-dimethylpyrimido [4′,5′:4,5]thieno[2,3-c]pyridazin-8-yl)-N,N-dimethylpyrrolidin-3-amine] | 55 | 326 | 40 | 257 | – | – | – |
| COCCN(C)c1ncnc2c1sc1nnc(C)c(C)c12 [Compound 12, N-(2-methoxyethyl)-N,3,4-trimethylpyrimido [4′,5′:4,5]thieno[2,3-c] pyridazin-8-amine] | 57 | 927 | 40 | 846 | – | – | – |
| Cc1nnc2sc3c(N4CC5(COC5)C4)ncnc3c2c1C [Compound 13, 6-(3,4-dimethylpyrimido [4′,5′:4,5]thieno[2,3-c]pyridazin-8-yl)-2-oxa-6-azaspiro[3.3]heptane] | 86 | 231 | 73 | 123 | – | – | – |
| COCC1CN(c2ncnc3c2sc2nnc(C)c(C)c23)C1 [Compound 14, 8-(3-(methoxymethyl)azetidin-1-yl)-3,4-dimethylpyrimido [4′,5′:4,5]thieno[2,3-c] pyridazine] | 75 | – | 62 | – | – | – | – |
| Cc1cc(O[C@H]2C[C@@H](C)N(c3ncnc4c3sc3nnc(C)c(C)c34)C2)ccn1 [Compound 365, 3,4-dimethyl-8-[(2R,4S)-2-methyl-4-[(2-methyl-4-pyridyl)oxy]pyrrolidin-1-yl]pyrimido [4′,5′:4,5]thieno[2,3-c] pyridazine dihydrochloride] | – | – | – | – | 551 | 65.2 | – |
| Cc1nnc2sc3c(N4CCC(Oc5ccncc5)(C(F)(F)F)C4)ncnc3c2c1C (centres unmarked) [Compound 366, 3,4-dimethyl-8-[3-(4-pyridyloxy)-3-(trifluoromethyl)pyrrolidin-1-yl]pyrimido[4′,5′:4,5]thieno[2,3-c]pyridazine dihydrochloride] | – | – | – | – | 1360 | 77.7 | – |
| Cc1nnc2sc3c(NCc4ccc(C(C)(O)CO)cc4)ncnc3c2c1C (centres unmarked) [Compound 373, 2-[4-[[(3,4-dimethylpyrimido[4′,5′:4,5]thieno[2,3-c]pyridazin-8-yl)amino]methyl]phenyl] propane-1,2-diol] | – | – | – | – | – | 98 | 69.2 |

Continued, in another order:

| Emax (rat mAChR M4) [%] | EC50 (rat mAChR M4) [nM] | Emax (human mAChR M4; Human M4) [%] | EC50 (human mAChR M4; [1]) [nM] | EC50 (human mAChR M4; [2]) [nM] | Emax (human mAChR M4; Table 11) [%] | Structure (SMILES) | EC50 (human mAChR M4) [nM] |
| --- | --- | --- | --- | --- | --- | --- | --- |
| 80 | 112 | 73 | – | – | – | Cc1nnc2sc3c(NC4CCC4)ncnc3c2c1C [Compound 5, N-cyclobutyl-3,4-dimethylpyrimido[4′,5′:4,5] thieno[2,3-c]pyridazin-8-amine] | – |
| – | – | – | – | – | 100 | COC(C)(C)c1ccc(CNc2ncnc3c2sc2nnc(C)c(C)c23)cc1 [Compound 367, N-[[4-(1-methoxy-1-methyl-ethyl)phenyl]methyl]-3,4-dimethyl-pyrimido[4′,5′:4,5] thieno[2,3-c]pyridazin-8-amine] | – |
| – | – | – | – | 766 | 98 | Cc1nnc2sc3c(NCc4ccc(C(C)(C)CO)cc4F)ncnc3c2c1C [Compound 368, 2-[4-[[(3,4-dimethylpyrimido[4′,5′:4,5]thieno[2,3-c]pyridazin-8-yl)amino]methyl]-3-fluoro-phenyl]-2-methyl-propan-1-ol] | – |
| – | – | – | – | – | 100 | [2H]C([2H])(Nc1ncnc2c1sc1nnc(C)c(C)c12)c1ccc(C(C)(C)O)cc1 [Compound 369, 2-[4-[dideuterio-[(3,4-dimethylpyrimido[4′,5′:4,5]thieno[2,3-c]pyridazin-8-yl)amino]methyl]phenyl] propan-2-ol] | – |
| – | – | – | – | 326 | 93.1 | [2H]C([2H])([2H])OC(C)(C)c1ccc(CNc2ncnc3c2sc2nnc(C)c(C)c23)cc1 [Compound 370, 3,4-dimethyl-N-[[4-[1-methyl-1-(trideuteriomethoxy)ethyl]phenyl]methyl] pyrimido[4′,5′:4,5]thieno [2,3-c]pyridazin-8-amine] | – |
| – | – | – | – | 41.6 | 93.6 | Cc1nnc2sc3c(NCc4ccc(C(C)(C)N)cc4)ncnc3c2c1C [Compound 371, N-[[4-(1-amino-1-methyl-ethyl)phenyl]methyl]-3,4-dimethyl-pyrimido[4′,5′:4,5] thieno[2,3-c]pyridazin-8-amine] | – |
| – | – | – | – | – | 94.7 | Cc1nnc2sc3c(NCc4ccc5c(c4)COC5(C)C)ncnc3c2c1C [Compound 372, N-[(1,1-dimethyl-3H-isobenzofuran-5-yl)methyl]-3,4-dimethyl-pyrimido[4′,5′:4,5]thieno [2,3-c]pyridazin-8-amine] | – |
| – | – | – | – | 45.2 | 101 | Cc1nnc2sc3c(NCc4ccc(C5COC5)cc4)ncnc3c2c1C [Compound 374, 3,4-dimethyl-N-[[4-(oxetan-3-yl)phenyl]methyl] pyrimido[4′,5′:4,5]thieno [2,3-c]pyridazin-8-amine] | – |
| – | – | – | – | 138 | 87.2 | Cc1nnc2sc3c(NCc4ccc(C(C)(C)CO)cc4)ncnc3c2c1C [Compound 375, 2-[4-[[(3,4-dimethylpyrimido[4′,5′:4,5]thieno[2,3-c]pyridazin-8-yl)amino]methyl]phenyl]-2-methyl-propan-1-ol] | – |
| – | – | – | – | – | 59.4 | CC(=O)OCc1nnc2sc3c(NCc4ccc(C(C)(C)O)cc4)ncnc3c2c1C [Compound 376, [8-[[4-(1-hydroxy-1-methyl-ethyl)phenyl]methylamino]-4-methyl-pyrimido[4′,5′:4,5]thieno[2,3-c]pyridazin-3-yl]methyl acetate] | – |
| – | – | – | – | – | 93.6 | Cc1c(CO)nnc2sc3c(NCc4ccc(C(C)(C)O)cc4)ncnc3c12 [Compound 377, 2-[4-[[[3-(hydroxymethyl)-4-methyl-pyrimido[4′,5′:4,5]thieno[2,3-c]pyridazin-8-yl]amino]methyl]phenyl]propan-2-ol] | – |
